Read-outs that look alike come from different tables or passages of the source. Positions of bridges follow the written chain, without caps; N, C: chain ends. Non-standard residues stand in square brackets, D forms with d. Residues, ends and D or L forms follow the SMILES beside them. Nva = CCC[C@H](N)C(=O)O
Legend:
Experiment in all cases: cell-based
hNav1.3 = hNav1.3 (Homo sapiens, UniProt Q9NY46); settings: IonWorks Quattro, read-out: IWQ Use Nav1.3
hNav1.5 = hNav1.5 (Homo sapiens, UniProt Q14524); settings: IonWorks Quattro, read-out: IWQ Use Nav1.5
hNav1.5, sequence (Q14524 whole entry, looked up): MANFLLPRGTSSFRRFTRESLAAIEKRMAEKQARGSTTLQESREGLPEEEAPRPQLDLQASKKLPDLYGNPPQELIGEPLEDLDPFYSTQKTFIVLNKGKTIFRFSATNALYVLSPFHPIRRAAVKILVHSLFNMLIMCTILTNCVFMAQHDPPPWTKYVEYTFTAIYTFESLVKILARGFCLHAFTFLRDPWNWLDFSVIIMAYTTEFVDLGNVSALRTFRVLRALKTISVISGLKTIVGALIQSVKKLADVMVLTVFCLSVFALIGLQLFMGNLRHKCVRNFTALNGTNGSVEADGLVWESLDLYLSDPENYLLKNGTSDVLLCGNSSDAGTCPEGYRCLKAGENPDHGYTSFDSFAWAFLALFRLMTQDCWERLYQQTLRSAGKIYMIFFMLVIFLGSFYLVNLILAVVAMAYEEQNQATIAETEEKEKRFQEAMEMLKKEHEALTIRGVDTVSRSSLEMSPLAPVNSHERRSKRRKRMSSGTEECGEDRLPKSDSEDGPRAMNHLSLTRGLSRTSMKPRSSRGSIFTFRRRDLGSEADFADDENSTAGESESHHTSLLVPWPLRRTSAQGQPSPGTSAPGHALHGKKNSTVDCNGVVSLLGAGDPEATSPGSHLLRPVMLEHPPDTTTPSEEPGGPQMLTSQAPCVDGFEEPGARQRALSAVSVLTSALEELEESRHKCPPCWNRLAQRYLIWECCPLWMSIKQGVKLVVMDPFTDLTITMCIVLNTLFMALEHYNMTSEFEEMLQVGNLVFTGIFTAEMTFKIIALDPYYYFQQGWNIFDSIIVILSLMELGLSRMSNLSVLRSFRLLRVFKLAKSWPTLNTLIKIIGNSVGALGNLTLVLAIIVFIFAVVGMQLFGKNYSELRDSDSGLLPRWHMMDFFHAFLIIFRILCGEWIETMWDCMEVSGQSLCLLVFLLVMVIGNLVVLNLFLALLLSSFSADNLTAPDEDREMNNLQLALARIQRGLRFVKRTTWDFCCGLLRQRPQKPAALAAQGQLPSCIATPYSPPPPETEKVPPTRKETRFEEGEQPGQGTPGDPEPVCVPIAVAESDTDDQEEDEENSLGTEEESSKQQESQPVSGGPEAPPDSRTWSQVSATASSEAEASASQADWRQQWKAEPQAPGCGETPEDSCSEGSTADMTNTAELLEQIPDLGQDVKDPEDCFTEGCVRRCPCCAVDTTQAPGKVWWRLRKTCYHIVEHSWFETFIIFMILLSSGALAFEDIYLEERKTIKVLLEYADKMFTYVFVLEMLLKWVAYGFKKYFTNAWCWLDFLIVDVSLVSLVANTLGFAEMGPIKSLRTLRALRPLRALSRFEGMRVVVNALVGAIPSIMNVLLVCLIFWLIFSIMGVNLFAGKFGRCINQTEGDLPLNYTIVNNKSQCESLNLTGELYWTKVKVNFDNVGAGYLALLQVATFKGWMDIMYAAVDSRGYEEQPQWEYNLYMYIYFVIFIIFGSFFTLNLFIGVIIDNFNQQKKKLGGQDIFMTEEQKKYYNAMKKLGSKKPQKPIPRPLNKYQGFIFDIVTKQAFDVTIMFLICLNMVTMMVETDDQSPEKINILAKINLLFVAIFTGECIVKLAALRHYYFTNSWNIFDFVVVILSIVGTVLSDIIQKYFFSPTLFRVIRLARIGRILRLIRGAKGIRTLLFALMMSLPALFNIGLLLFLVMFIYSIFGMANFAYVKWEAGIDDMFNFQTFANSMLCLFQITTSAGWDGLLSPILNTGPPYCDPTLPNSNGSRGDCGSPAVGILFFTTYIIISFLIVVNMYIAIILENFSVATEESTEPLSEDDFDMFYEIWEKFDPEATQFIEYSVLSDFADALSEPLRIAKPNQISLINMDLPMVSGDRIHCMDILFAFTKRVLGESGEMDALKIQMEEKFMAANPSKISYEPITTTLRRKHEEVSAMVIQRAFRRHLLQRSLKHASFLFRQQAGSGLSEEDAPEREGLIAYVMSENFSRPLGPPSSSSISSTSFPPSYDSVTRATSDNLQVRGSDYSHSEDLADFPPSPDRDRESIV

hNav1.7 = hNav1.7 (Homo sapiens, UniProt Q15858); type: cell-based; settings: IonWorks Quattro
[1] = use-dependent protocol, hNav1.3
[2] = use-dependent protocol, hNav1.5
[3] = use-dependent protocol, hNav1.7, read-out: IWQ Use Nav1.7
[4] = use-dependent block, hNav1.7, read-out: IWQ Use Nav1.7

hNav1.3, sequence (Q9NY46 whole entry, looked up): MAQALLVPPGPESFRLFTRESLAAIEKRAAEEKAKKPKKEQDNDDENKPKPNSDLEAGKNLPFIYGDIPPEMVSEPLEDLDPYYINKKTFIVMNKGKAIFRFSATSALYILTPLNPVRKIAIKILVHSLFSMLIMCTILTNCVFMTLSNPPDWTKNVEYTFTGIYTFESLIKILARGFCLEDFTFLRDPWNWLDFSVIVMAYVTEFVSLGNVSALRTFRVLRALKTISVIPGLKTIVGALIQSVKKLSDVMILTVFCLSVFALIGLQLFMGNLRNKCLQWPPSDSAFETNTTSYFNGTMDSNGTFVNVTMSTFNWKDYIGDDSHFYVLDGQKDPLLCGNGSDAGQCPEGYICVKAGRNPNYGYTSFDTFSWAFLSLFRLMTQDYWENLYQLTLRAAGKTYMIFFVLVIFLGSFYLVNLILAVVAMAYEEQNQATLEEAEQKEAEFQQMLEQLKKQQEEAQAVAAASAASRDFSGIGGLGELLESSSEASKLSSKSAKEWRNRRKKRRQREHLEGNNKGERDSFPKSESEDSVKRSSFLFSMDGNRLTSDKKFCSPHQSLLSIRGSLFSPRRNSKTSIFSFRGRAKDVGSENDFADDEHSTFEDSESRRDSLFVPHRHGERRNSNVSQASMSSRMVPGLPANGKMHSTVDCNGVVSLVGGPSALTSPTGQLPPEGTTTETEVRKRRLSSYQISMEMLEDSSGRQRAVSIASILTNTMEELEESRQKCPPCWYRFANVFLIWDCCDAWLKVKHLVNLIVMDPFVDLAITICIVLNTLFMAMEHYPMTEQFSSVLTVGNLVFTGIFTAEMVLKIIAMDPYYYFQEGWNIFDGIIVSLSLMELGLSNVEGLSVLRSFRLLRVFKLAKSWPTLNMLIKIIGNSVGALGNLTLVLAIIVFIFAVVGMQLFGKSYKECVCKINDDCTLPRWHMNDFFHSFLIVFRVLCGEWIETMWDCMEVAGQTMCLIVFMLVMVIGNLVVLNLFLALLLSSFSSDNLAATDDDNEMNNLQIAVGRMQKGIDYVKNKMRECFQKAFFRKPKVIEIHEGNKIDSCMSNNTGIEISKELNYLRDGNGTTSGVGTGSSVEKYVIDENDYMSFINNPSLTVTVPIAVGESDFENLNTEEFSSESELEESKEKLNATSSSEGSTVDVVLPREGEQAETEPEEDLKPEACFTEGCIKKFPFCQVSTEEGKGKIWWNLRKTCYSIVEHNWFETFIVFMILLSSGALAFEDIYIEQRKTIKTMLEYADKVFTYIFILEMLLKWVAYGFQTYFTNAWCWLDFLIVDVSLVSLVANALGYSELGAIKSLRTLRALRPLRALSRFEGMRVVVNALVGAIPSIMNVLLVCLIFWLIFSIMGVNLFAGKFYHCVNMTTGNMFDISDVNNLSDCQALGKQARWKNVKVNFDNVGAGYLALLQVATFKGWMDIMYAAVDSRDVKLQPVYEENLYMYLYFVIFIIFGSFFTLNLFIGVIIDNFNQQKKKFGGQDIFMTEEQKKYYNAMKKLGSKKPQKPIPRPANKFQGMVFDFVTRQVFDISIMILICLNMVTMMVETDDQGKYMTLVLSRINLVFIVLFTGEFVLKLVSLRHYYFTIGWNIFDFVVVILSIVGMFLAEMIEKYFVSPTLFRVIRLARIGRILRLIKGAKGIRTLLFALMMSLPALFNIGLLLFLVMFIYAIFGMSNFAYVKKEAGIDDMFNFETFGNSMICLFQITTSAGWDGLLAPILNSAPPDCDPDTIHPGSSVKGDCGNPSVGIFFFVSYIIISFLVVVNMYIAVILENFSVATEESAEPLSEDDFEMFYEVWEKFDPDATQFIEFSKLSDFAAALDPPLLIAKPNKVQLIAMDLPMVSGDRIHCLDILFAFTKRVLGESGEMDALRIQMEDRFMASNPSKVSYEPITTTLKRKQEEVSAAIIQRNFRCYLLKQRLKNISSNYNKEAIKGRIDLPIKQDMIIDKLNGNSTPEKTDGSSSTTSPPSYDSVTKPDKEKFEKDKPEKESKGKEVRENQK

SMILES: CC[C@H](C)[C@@H]1NC(=O)[C@@H]2CSSC[C@@H]3NC(=O)[C@H](C(C)C)NC(=O)[C@H](CC(C)C)NC(=O)[C@H](CC(N)=O)NC(=O)[C@@H]4CCCN4C(=O)[C@H](CCCNC(=N)N)NC(=O)[C@H](CSSC[C@H](NC(=O)[C@@H](N)CC(=O)O)C(=O)N[C@@H](CC(C)C)C(=O)NCC(=O)N[C@@H](Cc4cccnc4)C(=O)N[C@@H](CC(C)C)C(=O)N[C@@H](CCCNC(=N)N)C(=O)N[C@@H](CCCCN)C(=O)N2)NC(=O)[C@H](CSSC[C@@H](C(=O)N[C@@H](CCCCN)C(=O)N[C@@H](Cc2ccc(O)cc2)C(=O)N[C@H](C(=O)N[C@@H](Cc2ccccc2)C(N)=O)C(C)C)NC(=O)[C@H](Cc2c[nH]c4ccccc24)NC(=O)[C@H](CCCCN)NC(=O)[C@H](Cc2c[nH]cn2)NC(=O)[C@H]([C@@H](C)O)NC(=O)[C@H](CCCNC(=N)N)NC(=O)[C@H](CO)NC3=O)NC(=O)[C@H](CCCCN)NC(=O)[C@H](CC(=O)O)NC(=O)[C@H](CC(N)=O)NC(=O)[C@H](CC(=O)O)NC(=O)[C@@H]2CCCN2C1=O [compound 642]
- IC50 (hNav1.3; [1]): 3900 nM
- IC50 (hNav1.5; [2]): > 5000 nM
- IC50 (hNav1.7; [3]): 1700 nM

SMILES: CC[C@H](C)[C@@H]1NC(=O)[C@@H]2CSSC[C@@H]3NC(=O)[C@H](C(C)C)NC(=O)[C@H](CC(C)C)NC(=O)[C@H](CC(N)=O)NC(=O)[C@@H]4CCCN4C(=O)[C@H](CCCNC(=N)N)NC(=O)[C@H](CSSC[C@H](NC(=O)[C@@H](N)CC(=O)O)C(=O)N[C@@H](CC(C)C)C(=O)NCC(=O)N[C@@H](CCC(C)C)C(=O)N[C@@H](CCSC)C(=O)N[C@@H](CCCNC(=N)N)C(=O)N[C@@H](CCCCN)C(=O)N2)NC(=O)[C@H](CSSC[C@@H](C(=O)N[C@@H](CCCCN)C(=O)N[C@@H](Cc2ccc(O)cc2)C(=O)N[C@H](C(=O)N[C@@H](Cc2ccccc2)C(N)=O)C(C)C)NC(=O)[C@H](Cc2c[nH]c4ccccc24)NC(=O)[C@H](CCCCN)NC(=O)[C@H](Cc2c[nH]cn2)NC(=O)[C@H]([C@@H](C)O)NC(=O)[C@H](CCCNC(=N)N)NC(=O)[C@H](CO)NC3=O)NC(=O)[C@H](CCCCN)NC(=O)[C@H](CC(=O)O)NC(=O)[C@H](CC(N)=O)NC(=O)[C@H](CC(=O)O)NC(=O)[C@@H]2CCCN2C1=O [compound 679]
- IC50 (hNav1.3; [1]): 240 nM
- IC50 (hNav1.5; [2]): > 5000 nM
- IC50 (hNav1.7; [3]): 86 nM

SMILES: CCC[C@@H]1NC(=O)CNC(=O)[C@H](CC(C)C)NC(=O)[C@@H](NC(=O)[C@@H](N)CC(=O)O)CSSC[C@@H]2NC(=O)[C@@H]3CSSC[C@@H](C(=O)N[C@@H](CCCCN)C(=O)N[C@@H](Cc4ccc(O)cc4)C(=O)N[C@H](C(=O)N[C@@H](Cc4ccccc4)C(N)=O)C(C)C)NC(=O)[C@H](Cc4c[nH]c5ccccc45)NC(=O)[C@H](CCC(=O)O)NC(=O)[C@H](Cc4c[nH]cn4)NC(=O)[C@H]([C@@H](C)O)NC(=O)[C@H](CCCNC(=N)N)NC(=O)[C@H](CO)NC(=O)[C@H](CSSC[C@H](NC(=O)[C@H](CCCCN)NC(=O)[C@H](CCCNC(=N)N)NC(=O)[C@H](CC(C)C)NC1=O)C(=O)N[C@@H]([C@@H](C)CC)C(=O)N1CCC[C@H]1C(=O)N[C@@H](CC(=O)O)C(=O)N[C@@H](CC(N)=O)C(=O)N[C@@H](CC(=O)O)C(=O)N[C@@H](CCCCN)C(=O)N3)NC(=O)[C@H](C(C)C)NC(=O)[C@H](CC(C)C)NC(=O)[C@H](CC(N)=O)NC(=O)[C@@H]1CCCN1C(=O)[C@H](CCCNC(=N)N)NC2=O [compound 708] (H-DCLG[Nva]LRKCIPDNDKCCRPNLVCSRTHEWCKYVF-NH2; disulfide 2-17, 9-23, 16-30)
- IC50 (hNav1.3; [1]): 2800 nM
- IC50 (hNav1.5; [2]): 31000 nM
- IC50 (hNav1.7; [3]): 370 nM

SMILES: CC[C@H](C)[C@@H]1NC(=O)[C@@H]2CSSC[C@@H]3NC(=O)[C@H](C(C)C)NC(=O)[C@H](CC(C)C)NC(=O)[C@H](CC(N)=O)NC(=O)[C@@H]4CCCN4C(=O)[C@H](CCCNC(=N)N)NC(=O)[C@H](CSSC[C@H](NC(=O)[C@@H](N)CC(=O)O)C(=O)N[C@@H](CC(C)C)C(=O)NCC(=O)N[C@@H](Cc4ccccc4)C(=O)N[C@@H](CCSC)C(=O)N[C@@H](CCCNC(=N)N)C(=O)N[C@@H](CCCCN)C(=O)N2)NC(=O)[C@H](CSSC[C@@H](C(=O)N[C@@H](CCCCN)C(=O)N[C@@H](CCCCN)C(=O)N[C@H](C(=O)N[C@@H](Cc2ccccc2)C(=O)N[C@@H](Cc2c[nH]c4ccccc24)C(N)=O)C(C)C)NC(=O)[C@H](Cc2c[nH]c4ccccc24)NC(=O)[C@H](CCCCN)NC(=O)[C@H](Cc2c[nH]cn2)NC(=O)[C@H]([C@@H](C)O)NC(=O)[C@H](CCCNC(=N)N)NC(=O)[C@H](CO)NC3=O)NC(=O)[C@H](CCCCN)NC(=O)[C@H](CC(=O)O)NC(=O)[C@H](CC(N)=O)NC(=O)[C@H](CC(=O)O)NC(=O)[C@@H]2CCCN2C1=O [compound 127] (H-DCLGFMRKCIPDNDKCCRPNLVCSRTHKWCKKVFW-NH2; disulfide 2-17, 9-23, 16-30)
- IC50 (hNav1.3; use-dependent block, hNav1.3): 700 nM
- IC50 (hNav1.5; use-dependent block, hNav1.5): 18900 nM
- IC50 (hNav1.7; [4]): 730 nM

SMILES: CC[C@H](C)[C@@H]1NC(=O)[C@@H]2CSSC[C@@H]3NC(=O)[C@H](C(C)C)NC(=O)[C@H](CC(C)C)NC(=O)[C@H](CC(N)=O)NC(=O)[C@@H]4CCCN4C(=O)[C@H](CCCNC(=N)N)NC(=O)[C@H](CSSC[C@H](NC(=O)[C@@H](N)CC(=O)O)C(=O)N[C@@H](CC(C)C)C(=O)NCC(=O)N[C@@H](Cc4ccccc4)C(=O)N[C@@H](CCSC)C(=O)N[C@@H](CCCNC(=N)N)C(=O)N[C@@H](CCCCN)C(=O)N2)NC(=O)[C@H](CSSC[C@@H](C(=O)N[C@@H](CCCCN)C(=O)N[C@@H](Cc2ccc(O)cc2)C(=O)N[C@H](C(=O)N[C@@H](Cc2ccccc2)C(=O)N[C@@H](Cc2ccc(C(=O)O)cc2)C(N)=O)C(C)C)NC(=O)[C@H](Cc2c[nH]c4ccccc24)NC(=O)[C@H](CCCCN)NC(=O)[C@H](Cc2c[nH]cn2)NC(=O)[C@H]([C@@H](C)O)NC(=O)[C@H](CCCNC(=N)N)NC(=O)[C@H](CO)NC3=O)NC(=O)[C@H](CCCCN)NC(=O)[C@H](CC(=O)O)NC(=O)[C@H](CC(N)=O)NC(=O)[C@H](CC(=O)O)NC(=O)[C@@H]2CCCN2C1=O [compound 413]
- IC50 (hNav1.3; use-dependent, […]): 5350 nM
- IC50 (hNav1.5; use-dependent, […]): 8650 nM
- IC50 (hNav1.7; use-dependent, […], read-out: IWQ Use Nav1.7 (μm)): 1150 nM

SMILES: CC[C@H](C)[C@@H]1NC(=O)[C@@H]2CSSC[C@@H]3NC(=O)[C@H](C(C)C)NC(=O)[C@H](CC(C)C)NC(=O)[C@H](CC(N)=O)NC(=O)[C@@H]4CCCN4C(=O)[C@H](CCCNC(=N)N)NC(=O)[C@H](CSSC[C@H](NC(=O)[C@H](CC(=O)O)NC(=O)[C@H](CO)NC(=O)CN)C(=O)N[C@@H](CC(C)C)C(=O)NCC(=O)N[C@@H](C)C(=O)N[C@@H](Cc4ccccc4)C(=O)N[C@@H](CCCNC(=N)N)C(=O)N[C@@H](CCCCN)C(=O)N2)NC(=O)[C@H](CSSC[C@@H](C(=O)N[C@@H](CCCCN)C(=O)N[C@@H](Cc2ccc(O)cc2)C(=O)N[C@H](C(=O)N[C@@H](Cc2ccccc2)C(=O)N[C@@H](Cc2c[nH]c4ccccc24)C(=O)O)C(C)C)NC(=O)[C@H](Cc2c[nH]c4ccccc24)NC(=O)[C@H](CCCNC(=N)N)NC(=O)[C@H](Cc2c[nH]cn2)NC(=O)[C@H]([C@@H](C)O)NC(=O)[C@H](CCCNC(=N)N)NC(=O)[C@H](CO)NC3=O)NC(=O)[C@H](CCCCN)NC(=O)[C@H](CC(=O)O)NC(=O)[C@H](CC(N)=O)NC(=O)[C@H](CC(=O)O)NC(=O)[C@@H]2CCCN2C1=O [compound 815] (H-GSDCLGAFRKCIPDNDKCCRPNLVCSRTHRWCKYVFW-OH; disulfide 4-19, 11-25, 18-32)
- IC50 (hNav1.3; use-dependent block, hNav1.3): > 5000 nM
- IC50 (hNav1.5; use-dependent block, hNav1.5): > 5000 nM
- IC50 (hNav1.7; [4]): > 5000 nM

Reference: US9340590B2 (priority 2011, dated 2016)
